The pIC50 is −log10 of the IC50, conventionally taken in molar units. Low values mean a large IC50, high ones a small IC50.

Structures are written as SMILES. pIC50: −log10 of the molar value.

Our source for the IC50 values is BindingDB's records for doi:10.1016/j.chembiol.2016.10.011 (H. Lee Moffitt Cancer Center & Research Institute, 2016).

Experiment [1] concerns the target Poly [ADP-ribose] polymerase 1 (Homo sapiens, UniProt P09874). In words: In Vitro PARP1 Activity Assay. As to the method:
Inhibition of PARP1 was assessed using the Universal Chemiluminescent PARPKit. Luminescence readings were normalized to controls and fit to a sigmoidaldose-response curve using GraphPad Prism 6 to determine IC50 values.

Experiment [2] has as its target T1, GDH/6PGL endoplasmic bifunctional protein (Homo sapiens, UniProt O95479).
T1 sequence (O95479 whole entry): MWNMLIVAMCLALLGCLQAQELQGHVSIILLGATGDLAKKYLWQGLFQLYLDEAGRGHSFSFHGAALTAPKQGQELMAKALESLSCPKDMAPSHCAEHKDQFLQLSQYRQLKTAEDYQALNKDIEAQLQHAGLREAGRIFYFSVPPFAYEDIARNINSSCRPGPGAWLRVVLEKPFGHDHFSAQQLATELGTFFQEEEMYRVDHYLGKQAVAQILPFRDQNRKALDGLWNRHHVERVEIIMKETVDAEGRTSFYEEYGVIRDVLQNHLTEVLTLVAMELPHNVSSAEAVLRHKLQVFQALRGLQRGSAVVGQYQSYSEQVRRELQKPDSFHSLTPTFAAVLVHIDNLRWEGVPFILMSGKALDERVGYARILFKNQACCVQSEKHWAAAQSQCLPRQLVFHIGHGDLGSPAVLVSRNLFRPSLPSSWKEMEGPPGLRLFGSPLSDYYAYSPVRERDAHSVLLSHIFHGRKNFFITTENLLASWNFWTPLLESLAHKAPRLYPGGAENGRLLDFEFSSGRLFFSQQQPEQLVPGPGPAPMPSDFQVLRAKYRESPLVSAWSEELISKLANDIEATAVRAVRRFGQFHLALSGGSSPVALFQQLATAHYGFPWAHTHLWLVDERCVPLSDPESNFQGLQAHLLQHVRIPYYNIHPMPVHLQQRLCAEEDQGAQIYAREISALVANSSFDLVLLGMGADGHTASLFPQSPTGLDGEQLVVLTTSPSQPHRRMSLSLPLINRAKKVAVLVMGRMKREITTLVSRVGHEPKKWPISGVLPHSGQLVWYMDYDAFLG
In words: H6PD Activity Assay. As to the method: HEK293 H6PD-OE and HEK293 pellets were lysed and the lysate was quantified with the Bradford protein assay. Reaction mix containing galactose-6-phosphate (Gal6P) was combined with increasing concentrations of PARPi or DMSO. As an additional control, reaction mix without substrate was combined with HEK293 H6PD-OE lysate. Lysate from HEK293 or HEK293 H6PD-OE was added to each well to start the reactions. The absorbance at 340 nm (NADPH) was measured for 90 min at 10 min intervals. The 60 min data, which were within the linear range, was used for analysis. Background absorbance was subtracted and the H6PD activity of theHEK293 H6PD-OE lysates treated with PARPi was normalized to the DMSO control.

Poly [ADP-ribose] polymerase 1, sequence (P09874 whole entry): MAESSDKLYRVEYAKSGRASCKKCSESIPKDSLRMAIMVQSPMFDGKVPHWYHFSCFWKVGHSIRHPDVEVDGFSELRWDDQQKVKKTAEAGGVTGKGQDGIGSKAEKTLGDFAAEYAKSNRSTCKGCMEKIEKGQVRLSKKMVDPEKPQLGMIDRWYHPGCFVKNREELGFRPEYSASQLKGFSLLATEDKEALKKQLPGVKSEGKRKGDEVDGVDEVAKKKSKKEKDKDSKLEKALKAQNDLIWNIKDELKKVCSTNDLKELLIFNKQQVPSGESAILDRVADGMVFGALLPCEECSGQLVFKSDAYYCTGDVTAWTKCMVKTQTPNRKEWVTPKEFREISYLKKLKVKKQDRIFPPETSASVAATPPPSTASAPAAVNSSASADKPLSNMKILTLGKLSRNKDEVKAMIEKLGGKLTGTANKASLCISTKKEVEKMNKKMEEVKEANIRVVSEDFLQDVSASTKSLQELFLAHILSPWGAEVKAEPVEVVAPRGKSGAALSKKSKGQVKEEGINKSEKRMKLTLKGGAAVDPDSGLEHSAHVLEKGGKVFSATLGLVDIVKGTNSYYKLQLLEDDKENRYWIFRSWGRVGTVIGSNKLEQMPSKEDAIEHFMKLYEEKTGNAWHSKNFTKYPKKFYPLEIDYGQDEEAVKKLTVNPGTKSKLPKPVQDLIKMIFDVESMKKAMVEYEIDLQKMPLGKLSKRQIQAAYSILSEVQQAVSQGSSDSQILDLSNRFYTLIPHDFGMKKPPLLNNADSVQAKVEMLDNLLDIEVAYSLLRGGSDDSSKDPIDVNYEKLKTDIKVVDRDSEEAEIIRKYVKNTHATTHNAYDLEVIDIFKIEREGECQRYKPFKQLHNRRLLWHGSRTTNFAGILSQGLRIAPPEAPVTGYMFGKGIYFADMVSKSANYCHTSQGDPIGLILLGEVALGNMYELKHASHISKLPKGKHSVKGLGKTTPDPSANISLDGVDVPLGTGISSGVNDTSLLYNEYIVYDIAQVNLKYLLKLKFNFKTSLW

Turning to `CN(CCCN)Cc1ccc(-c2[nH]c3cc(F)cc4c3c2CCNC4=O)cc1` [c-Rucaparib], the pIC50 in experiment [1] is 8.36.

In experiment [1], `NCCCC(=O)N1CCN(C(=O)c2cc(Cc3n[nH]c(=O)c4ccccc34)ccc2F)CC1` [c-Olaparib] had a pIC50 of 8.23.

`NCCCN1CCC[C@@H](c2ccc(-n3cc4cccc(C(N)=O)c4n3)cc2)C1` [c-Niraparib]: in experiment [1], the pIC50 was 7.32.

As to `CNCc1ccc(-c2[nH]c3cc(F)cc4c3c2CCNC4=O)cc1` [AG-014699], in experiment [2], the pIC50 was 4.74.

In experiment [1], `C[C@]1(c2nc3c(C(N)=O)cccc3[nH]2)CCCN1CCCN` [c-Veliparib] showed a pIC50 of 8.08.
